In ChEMBL document CHEMBL1144356 (J Med Chem, 2005):
pEC50, pIC50: −log10 of the molar value.

Assays:
[1] = molecular target: T1, Peroxisome proliferator-activated receptor gamma (Homo sapiens, UniProt P37231); assay: Effective concentration against human PPAR-gamma in Gal4 transactivation assay; 28% response at 3 uM; type: functional
T1 sequence (P37231 whole entry): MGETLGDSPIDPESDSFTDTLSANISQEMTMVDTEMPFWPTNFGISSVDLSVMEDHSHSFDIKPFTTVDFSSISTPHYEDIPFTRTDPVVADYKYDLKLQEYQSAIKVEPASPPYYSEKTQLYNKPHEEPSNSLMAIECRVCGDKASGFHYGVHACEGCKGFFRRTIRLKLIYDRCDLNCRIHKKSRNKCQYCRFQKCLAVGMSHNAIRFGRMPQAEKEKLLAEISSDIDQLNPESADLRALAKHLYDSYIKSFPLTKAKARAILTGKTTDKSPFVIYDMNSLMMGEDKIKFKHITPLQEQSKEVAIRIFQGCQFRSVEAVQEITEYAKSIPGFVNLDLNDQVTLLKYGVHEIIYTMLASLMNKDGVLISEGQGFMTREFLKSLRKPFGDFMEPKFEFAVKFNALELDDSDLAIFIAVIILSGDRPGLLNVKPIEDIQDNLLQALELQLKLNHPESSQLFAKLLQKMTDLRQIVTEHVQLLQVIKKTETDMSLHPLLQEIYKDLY

[2] = molecular target: T2, Peroxisome proliferator-activated receptor alpha (Canis lupus familiaris, UniProt Q95N78); assay: Effective concentration against canine PPAR-alpha in Gal4 transactivation assay
T2 sequence (Q95N78 whole entry): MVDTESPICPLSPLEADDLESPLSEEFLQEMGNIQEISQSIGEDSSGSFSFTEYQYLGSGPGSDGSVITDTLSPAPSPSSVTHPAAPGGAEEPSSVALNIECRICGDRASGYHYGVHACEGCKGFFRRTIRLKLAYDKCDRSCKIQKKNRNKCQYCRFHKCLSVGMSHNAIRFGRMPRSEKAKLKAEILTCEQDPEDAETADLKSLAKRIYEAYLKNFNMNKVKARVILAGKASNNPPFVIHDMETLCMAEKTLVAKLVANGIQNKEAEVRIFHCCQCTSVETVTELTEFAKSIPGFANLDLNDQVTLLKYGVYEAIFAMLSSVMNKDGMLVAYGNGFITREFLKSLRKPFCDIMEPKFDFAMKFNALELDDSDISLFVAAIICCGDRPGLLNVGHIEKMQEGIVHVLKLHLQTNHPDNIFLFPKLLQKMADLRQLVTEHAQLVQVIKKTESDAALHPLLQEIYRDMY

[3] = molecular target: T3, Peroxisome proliferator-activated receptor alpha (Homo sapiens, UniProt Q07869); assay: Effective concentration against human PPAR-alpha in Gal4 transactivation assay; type: functional
T3 sequence (Q07869 whole entry): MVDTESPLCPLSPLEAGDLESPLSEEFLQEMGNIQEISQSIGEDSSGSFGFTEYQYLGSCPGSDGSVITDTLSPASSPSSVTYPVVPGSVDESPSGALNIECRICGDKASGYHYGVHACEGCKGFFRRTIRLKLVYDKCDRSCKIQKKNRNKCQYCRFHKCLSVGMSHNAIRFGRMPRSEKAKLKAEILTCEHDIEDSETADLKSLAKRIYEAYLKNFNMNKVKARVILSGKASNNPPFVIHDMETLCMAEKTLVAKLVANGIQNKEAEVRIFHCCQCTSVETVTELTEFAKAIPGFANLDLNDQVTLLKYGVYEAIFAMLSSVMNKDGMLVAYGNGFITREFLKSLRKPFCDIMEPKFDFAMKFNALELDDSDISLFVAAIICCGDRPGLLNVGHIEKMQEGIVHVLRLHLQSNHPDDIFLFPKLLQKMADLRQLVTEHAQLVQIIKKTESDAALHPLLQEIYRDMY

[4] = molecular target: T4, Peroxisome proliferator-activated receptor delta (Homo sapiens, UniProt Q03181); assay: In vitro binding affinity for PPAR-delta
T4 sequence (Q03181 whole entry): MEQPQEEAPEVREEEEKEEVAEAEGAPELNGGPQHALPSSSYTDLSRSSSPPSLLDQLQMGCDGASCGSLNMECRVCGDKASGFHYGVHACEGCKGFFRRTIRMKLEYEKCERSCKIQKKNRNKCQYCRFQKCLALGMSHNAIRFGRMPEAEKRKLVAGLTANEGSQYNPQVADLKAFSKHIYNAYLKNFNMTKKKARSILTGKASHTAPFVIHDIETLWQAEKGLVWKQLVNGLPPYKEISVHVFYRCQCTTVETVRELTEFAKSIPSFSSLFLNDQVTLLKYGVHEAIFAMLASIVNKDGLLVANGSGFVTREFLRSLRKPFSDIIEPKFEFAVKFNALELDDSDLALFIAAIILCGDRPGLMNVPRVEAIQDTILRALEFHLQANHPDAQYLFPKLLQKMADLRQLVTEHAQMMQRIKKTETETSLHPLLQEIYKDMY

Cricetinae gen. sp. [5] = assay: Effect at an oral dose of 0.1 mg/kg/day for 14 days on serum cholesterol level of hamster; type: functional, Cricetulus griseus
[6] = In vitro binding affinity for PPAR-alpha; set-up: species or system Homo sapiens
Cricetinae gen. sp. [7] = assay: Effect at an oral dose of 0.3 mg/kg/day for 14 days on serum triglyceride level of hamster; type: functional, Cricetulus griseus
Cricetinae gen. sp. [8] = assay: Effect at an oral dose of 0.1 mg/kg/day for 14 days on serum triglyceride level of hamster; type: functional, Cricetulus griseus
[9] = molecular target: T1, Peroxisome proliferator-activated receptor gamma; assay: In vitro binding affinity for PPAR-gamma
Cricetinae gen. sp. [10] = assay: Effect at an oral dose of 0.3 mg/kg/day for 14 days on serum cholesterol level of hamster; type: functional, Cricetulus griseus
[11] = molecular target: T1, Peroxisome proliferator-activated receptor gamma; assay: Effective concentration against human PPAR-gamma in Gal4 transactivation assay; 4% response at 3 uM; type: functional
[12] = molecular target: T1, Peroxisome proliferator-activated receptor gamma; assay: Effective concentration against human PPAR-gamma in Gal4 transactivation assay; 25% response at 3 uM; type: functional
[13] = molecular target: T1, Peroxisome proliferator-activated receptor gamma; assay: Effective concentration against human PPAR-gamma in Gal4 transactivation assay; 11% response at 3 uM; type: functional

SMILES	pEC50 [1]	pEC50 [2]	pEC50 [3]	pIC50 [4]	TC (Cricetinae gen. sp. [5]) [%]	pIC50 [6]	TG (Cricetinae gen. sp. [7]) [%]	TG (Cricetinae gen. sp. [8]) [%]	pIC50 [9]	TC (Cricetinae gen. sp. [10]) [%]	pEC50 [11]	pEC50 [12]	pEC50 [13]
CC[C@@]1(C(=O)O)Cc2cc(OCCCOc3ccc(CC(F)(F)F)cc3Cl)ccc2O1	< 5.52	> 9.00	8.70	< 4.82	-33	8.40	-26	-13	< 4.82	-37	–	–	–
CC[C@@]1(C(=O)O)Cc2cc(OCCCOc3ccc(CCC(F)(F)F)cc3Cl)ccc2O1	–	8.70	–	< 4.82	–	7.68	–	–	< 4.82	–	–	–	–
CC(C)(C)[C@@]1(C(=O)O)Cc2cc(OCCOc3ccc(OC(F)(F)F)cc3Cl)ccc2O1	–	–	–	< 4.30	–	5.86	–	–	< 4.30	–	–	–	–
CC[C@]1(C(=O)O)Cc2cc(OCCCOc3ccc(OC(F)(F)F)cc3Cl)ccc2O1	–	–	–	< 4.30	–	5.65	–	–	< 4.82	–	–	–	–
CC(C)[C@]1(C(=O)O)Cc2cc(OCCCOc3ccc(OC(F)(F)F)cc3Cl)ccc2O1	–	–	–	< 4.82	–	5.89	–	–	< 4.30	–	–	–	–
CC[C@@]1(C(=O)O)Cc2cc(OCCCOc3ccc(OCC(F)(F)F)cc3)ccc2O1	–	6.89	–	< 4.82	–	6.64	–	–	< 4.30	–	–	–	–
CC(C)[C@@]1(C(=O)O)Cc2cc(OCCOc3ccc(OC(F)(F)F)cc3Cl)ccc2O1	–	8.00	7.24	< 4.30	–	6.58	–	–	< 4.30	–	< 5.52	–	–
CC(C)[C@@]1(C(=O)O)Cc2cc(OCCCOc3ccc(OC(F)(F)F)cc3Cl)ccc2O1	–	> 9.00	–	< 4.82	-43	8.52	-52	-52	< 4.82	-54	–	< 5.52	–
CCC1(C(=O)O)Cc2ccc(OCCCOc3ccc(OC(F)(F)F)cc3Cl)cc2O1 (stereo not given)	–	> 9.00	–	5.92	–	7.66	–	–	5.49	–	–	–	–
CC(C)[C@@]1(C(=O)O)Cc2cc(OCCCOc3cc(C(F)(F)F)ccc3Cl)ccc2O1	–	7.38	7.39	< 4.82	–	6.79	–	–	< 4.82	–	–	–	< 5.52
CCC1(C(=O)O)Cc2cc(OCCCOc3ccc(C(F)(F)F)cc3Cl)ccc2O1 (racemic)	–	–	–	6.08	–	7.38	–	–	< 4.82	–	–	–	–
